Test results from patent publication US20110268794A1, “METHODS AND MATERIALS FOR DELIVERING BILE ACIDS” (priority 2009, published 2011).

Key:
Type in all cases: in vivo, human
[1] = tested on: healthy volunteers; experiment: Adverse events, healthy volunteers (Example 1); conditions: CDC 1000 mg once daily 4 days; n=20
Experimental: This was a double-blind, placebo-controlled, randomized study evaluating the effects of sodium chenodeoxycholate (CDC) or placebo orally administered once daily for four days in healthy volunteers. An independent statistician generated the randomization code. Clinical and laboratory study personnel were blinded throughout the study until data were locked and analyzed. Safety monitoring was conducted throughout the study. Three groups (n=20 each) were randomized to oral placebo, 500 mg or 1000 mg CDC daily (in pH-sensitive, methacrylate-coated capsules), each for a period of 4 days.

[2] = tested on: female IBS-C patients; experiment: Bowel function by daily questionnaires, female IBS-C patients (Example 2)
Experimental: (§1) The following study was performed to evaluate the effects of ileocolonic delivery of sodium chenodeoxycholate (CDC) on gastrointestinal (GI) and colonic transit and bowel function in constipation-predominant irritable bowel syndrome (IBS-C). A double-blind, placebo-controlled study evaluated effects of once-daily CDC for 4 days in 36 female IBS-C patients (mean age 41.80±1.62 y). Patients were randomized to oral placebo, 500 mg or 1000 mg CDC delivered to the ileocolonic region in pH-sensitive, methacrylate-coated capsules. Fasting serum 7α-hydroxy-4-cholesten-3-one (7αC4) was measured to assess for baseline abnormalities in bile acid synthesis. […] Treatment effects were compared by ANCOVA with BMI as a covariate, and each CDC dose against placebo by Dunnett's test.

[3] = tested on: healthy volunteers; experiment: Daily stool diaries (bowel function), healthy volunteers (Example 1); conditions: for Ease of passage (scale 1-7) / Stool frequency per day / Stool consistency by Bristol Stool Form Scale: N = 20, mean ± SEM; for Stool frequency per day: overall p < 0.001; for Stool consistency by Bristol Stool Form Scale: scale 1 hard lumps to 7 watery
Experimental: This was a double-blind, placebo-controlled, randomized study evaluating the effects of sodium chenodeoxycholate (CDC) or placebo orally administered once daily for four days in healthy volunteers. Three groups (n=20 each) were randomized to oral placebo, 500 mg or 1000 mg CDC daily (in pH-sensitive, methacrylate-coated capsules), each for a period of 4 days. During at least 3 days of the baseline period and the 4 days of treatment period, each patient noted each bowel movement with the exact time and with the description of stool consistency according to the BSFS (ranging from 1=“hard lumps” to 7=“watery”), and the ease of passage (ranging from 1=“manual disimpaction” to 7=“incontinence”), and answered whether or not they felt they had completely emptied their bowels (1=“yes” and 0=“no”) (Bouras et al., Gastroenterology, 120:354-60 (2001)). The diaries contained values for stool consistency, stool frequency, ease of passage and sense of completely emptying their bowels.

[4] = tested on: female IBS-C patients; experiment: Scintigraphic gastrointestinal and colonic transit, female IBS-C patients (Example 2)
Experimental: as §1

[5] = tested on: female IBS-C patients; experiment: Side effects, female IBS-C patients (Example 2)
Experimental: as §1

[6] = CDC 500 mg once daily 4 days, N = 11, mean ± SEM
[7] = CDC 1000 mg once daily 4 days, N = 12, mean ± SEM
[8] = 500 mg or 1000 mg once daily 4 days vs placebo

C[C@H](CCC(=O)O)[C@H]1CC[C@H]2[C@@H]3[C@H](O)C[C@@H]4C[C@H](O)CC[C@]4(C)[C@H]3CC[C@]12C [CDC, sodium chenodeoxycholate]
Percent of participants with diarrhea [1]: 75% | Percent of participants with gas [1]: 5% | Percent of participants with headache [1]: 25% | Percent of participants with loose stools [1]: 20% | Percent of participants with lower abdo bloating [1]: 0% | Percent of participants with lower abdo pain/cramps [1]: 75% | Percent of participants with muscle aches [1]: 0% | Percent of participants with nausea [1]: 20% | Percent of participants with sensation of warmth [1]: 5% | Percent of participants with sweating [1]: 5% | Stool consistency (Bristol Scale) [2, 6]: 3.58 ± 0.33 | Stool frequency per day [2, 6]: 1.22 ± 0.19 per day | Stool consistency (Bristol Scale) [2, 7]: 3.47 ± 0.23 | Stool frequency per day [2, 7]: 1.27 ± 0.13 per day | Overall treatment effect on sense of incomplete evacuation ([3]; 500 mg or 1000 mg once daily 4 days vs placebo, healthy volunteers, p=0.02): significant overall treatment effects | Ease of passage (scale 1-7) ([3]; CDC 500 mg once daily 4 days): 4.1 ± 0.06 | Stool frequency per day ([3]; CDC 500 mg once daily 4 days): 1.50 ± 0.18 per day | Stool consistency by Bristol Stool Form Scale ([3]; CDC 500 mg once daily 4 days): 4.29 ± 0.19 | Ease of passage (scale 1-7) ([3]; CDC 1000 mg once daily 4 days): 4.3 ± 0.06 | Stool frequency per day ([3]; CDC 1000 mg once daily 4 days): 2.01 ± 0.15 per day | Stool consistency by Bristol Stool Form Scale ([3]; CDC 1000 mg once daily 4 days): 4.80 ± 0.15 | Effect on colonic filling at 6 hours [4, 8]: not affected | Effect on gastric emptying t1/2 [4, 8]: not affected | AC t1/2 (ascending colon emptying) [4, 6]: 9.55 ± 2.90 h | CF 6 (colonic filling at 6 hours) [4, 6]: 52.64 ± 6.67% | GC 24 (colonic geometric center at 24 hours) [4, 6]: 3.12 ± 0.43 | AC t1/2 (ascending colon emptying) [4, 7]: 8.19 ± 1.78 h | CF 6 (colonic filling at 6 hours) [4, 7]: 54.75 ± 7.05% | GC 24 (colonic geometric center at 24 hours) [4, 7]: 3.49 ± 0.36 | Safety issues ([5]; 500 mg or 1000 mg once daily 4 days): No safety issues were identified | Patients with diarrhea ([5]; CDC 500 mg once daily 4 days): 18% | Patients with lower abdominal cramps/pain ([5]; CDC 500 mg once daily 4 days): 45% | Patients with diarrhea ([5]; CDC 1000 mg once daily 4 days): 17% | Patients with lower abdominal cramps/pain ([5]; CDC 1000 mg once daily 4 days): 42%
